Literature values as cited in paper PMC6968775, “Assessment of contribution of BCRP to intestinal absorption of various drugs using portal‐systemic blood concentration difference model in mice” (Pharmacology Research & Perspectives, 2020).

Conditions: human; cited from earlier work

Question: For `O=C(O)c1cn(C2CC2)c2cc(N3CCNCC3)c(F)cc2c1=O` [ciprofloxacin, Ciprofloxacin], which “oral BA in human” value is on record?
Answer: about 70%
